Reference: US20090012103A1, “SUBSTITUTED HETEROCYCLIC COMPOUNDS” (priority 2007, published 2009)

How the values were obtained:
hERG potassium channel = hERG potassium channel (Homo sapiens, UniProt Q12809); assay: hERG screening assay (PatchXpress patch clamp, CHO cell line)
Description: Compounds were screened to test their activity in blocking the hERG potassium channel. The hERG channel is heterologously expressed in a CHO (Chinese Hamster Ovary) cell line. Cells are maintained with standard tissue culture procedures and stable channel expression is maintained with 500 μg/ml G418 in the culture medium. Cells are harvested for testing on the PatchXpress automated patch clamp with Accumax (Innovative Cell Technologies, San Diego, Calif.) to isolate single cells.
The following solutions are used for electrophysiological recordings. The external solution contains: 2 mM CaCl2; 2 mM MgCl2; 4 mM KCl; 150 mM NaCl; 10 mM Glucose; 10 mM HEPES (pH 7.4 with 1M NaOH, osmolarity).
hERG channels are activated when the voltage is stepped to +20 mV from the −80 mV holding potential (see FIG. 3). During a 5 second step at +20 mV, the channels activate and then largely inactivate, so the currents are relatively small. Upon returning to −50 mV from +20 mV, hERG currents transiently become much larger as inactivation is rapidly removed and then the channel closes. The first step to −50 mV for 300 ms is used as a baseline for measuring the peak amplitude during the step to −50 mV after channel activation. The peak current at −50 mV is measured both under control conditions and after addition of compound.
All compounds are prepared as 10 mM DMSO stocks in glass vials. Stock solutions are mixed by vigorous vortexing and sonication for about 2 minutes at room temperature. For testing, compounds are diluted in glass vials using an intermediate dilution step in pure DMSO and then further diluted to working concentrations in external solution. Dilutions are prepared no longer than 20 minutes before use.
After achieving the whole-cell configuration, cells are monitored for 90 seconds to assess stability and washed with external solution for 66 seconds. The voltage protocol described above is then applied to the cells every 12 seconds and throughout the whole procedure. Only cells with stable recording parameters and meeting specified health criteria are allowed to enter the compound addition procedure.
External solution containing 0.1% DMSO (vehicle) is applied to the cells first to establish the control peak current amplitude. After allowing the current to stabilize for 3 to 5 minutes, 1 μM and then 10 μM test compounds are applied. Each compound concentration is added 4 times and cells are kept in test solution until the effect of the compound reaches steady state or for a maximum of 12 minutes. […] Washout in the external solution compartment is performed until the recovery of the current reaches steady state. Data are analyzed using DataXpress, Clampfit (Molecular Devices, Inc., Sunnyvale) and Origin 7 (Originlab Corp.)

[1] = target: T1, wild-type human cardiac sodium channel, hNav1.5 (Homo sapiens, UniProt Q14524); assay: Peak INa screening assay (tonic block TB and use-dependent block UDB of peak sodium current); assay type: cell-based; conditions: compound at 10 μM
[2] = target: T1, wild-type human cardiac sodium channel, hNav1.5; assay: Late INa screening assay (late sodium current, PatchXpress whole cell patch clamp); assay type: cell-based; conditions: compound at 10 μM; read-out: Late INa % blk
[3] = tonic block, read-out: Tonic Peak INa % blk
[4] = use-dependent block, read-out: UDB Peak INa % blk

T1 sequence (Q14524 whole entry): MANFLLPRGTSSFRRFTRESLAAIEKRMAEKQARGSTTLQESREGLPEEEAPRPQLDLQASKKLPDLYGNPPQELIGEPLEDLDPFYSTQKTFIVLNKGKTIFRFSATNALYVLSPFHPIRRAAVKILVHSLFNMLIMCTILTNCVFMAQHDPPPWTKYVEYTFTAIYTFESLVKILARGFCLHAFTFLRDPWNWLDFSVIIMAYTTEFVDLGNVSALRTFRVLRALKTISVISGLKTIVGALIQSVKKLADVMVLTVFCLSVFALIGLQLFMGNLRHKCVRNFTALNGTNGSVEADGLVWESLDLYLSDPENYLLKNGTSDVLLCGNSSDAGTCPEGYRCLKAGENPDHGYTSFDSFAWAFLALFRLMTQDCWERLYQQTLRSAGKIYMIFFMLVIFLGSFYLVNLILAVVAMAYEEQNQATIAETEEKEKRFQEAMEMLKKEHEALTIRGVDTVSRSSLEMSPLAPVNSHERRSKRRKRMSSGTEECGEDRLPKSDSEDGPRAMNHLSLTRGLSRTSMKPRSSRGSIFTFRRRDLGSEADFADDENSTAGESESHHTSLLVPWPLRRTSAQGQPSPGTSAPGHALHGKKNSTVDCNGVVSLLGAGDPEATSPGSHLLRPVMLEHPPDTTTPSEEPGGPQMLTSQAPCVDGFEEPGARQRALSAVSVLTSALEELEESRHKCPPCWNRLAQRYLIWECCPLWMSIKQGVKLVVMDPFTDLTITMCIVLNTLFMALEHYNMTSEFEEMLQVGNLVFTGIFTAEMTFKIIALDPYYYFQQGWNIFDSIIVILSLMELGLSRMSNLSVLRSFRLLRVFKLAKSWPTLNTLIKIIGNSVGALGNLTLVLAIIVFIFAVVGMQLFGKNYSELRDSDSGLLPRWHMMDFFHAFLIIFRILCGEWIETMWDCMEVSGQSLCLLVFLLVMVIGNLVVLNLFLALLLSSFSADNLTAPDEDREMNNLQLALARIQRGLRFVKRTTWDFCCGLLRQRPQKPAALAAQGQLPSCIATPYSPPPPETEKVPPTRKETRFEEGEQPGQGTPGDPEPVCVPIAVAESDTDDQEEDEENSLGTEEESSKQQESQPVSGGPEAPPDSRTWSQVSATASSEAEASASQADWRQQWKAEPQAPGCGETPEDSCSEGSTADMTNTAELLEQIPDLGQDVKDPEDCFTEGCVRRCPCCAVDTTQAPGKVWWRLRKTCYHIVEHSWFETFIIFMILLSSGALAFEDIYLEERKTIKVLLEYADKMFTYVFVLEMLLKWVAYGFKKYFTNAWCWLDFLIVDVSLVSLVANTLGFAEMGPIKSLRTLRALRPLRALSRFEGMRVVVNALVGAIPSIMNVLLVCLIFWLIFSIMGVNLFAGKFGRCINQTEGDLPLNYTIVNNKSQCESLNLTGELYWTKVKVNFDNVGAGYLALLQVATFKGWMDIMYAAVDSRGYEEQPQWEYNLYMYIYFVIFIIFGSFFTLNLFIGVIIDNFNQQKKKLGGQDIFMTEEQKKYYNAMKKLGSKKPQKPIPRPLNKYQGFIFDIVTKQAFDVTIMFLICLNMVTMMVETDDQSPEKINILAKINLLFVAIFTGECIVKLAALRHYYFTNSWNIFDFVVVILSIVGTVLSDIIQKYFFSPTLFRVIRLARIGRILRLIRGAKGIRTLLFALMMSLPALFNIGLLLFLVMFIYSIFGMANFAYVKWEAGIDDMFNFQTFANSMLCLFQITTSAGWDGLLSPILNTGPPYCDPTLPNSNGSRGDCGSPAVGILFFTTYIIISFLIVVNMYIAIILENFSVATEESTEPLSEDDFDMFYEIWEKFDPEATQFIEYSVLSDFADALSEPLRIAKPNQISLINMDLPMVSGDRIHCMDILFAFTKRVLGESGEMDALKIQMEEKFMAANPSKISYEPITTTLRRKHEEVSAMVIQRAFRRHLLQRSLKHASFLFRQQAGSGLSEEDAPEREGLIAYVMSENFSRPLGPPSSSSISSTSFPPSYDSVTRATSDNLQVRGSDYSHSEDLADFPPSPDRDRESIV
Sequence of hERG potassium channel (Q12809 whole entry): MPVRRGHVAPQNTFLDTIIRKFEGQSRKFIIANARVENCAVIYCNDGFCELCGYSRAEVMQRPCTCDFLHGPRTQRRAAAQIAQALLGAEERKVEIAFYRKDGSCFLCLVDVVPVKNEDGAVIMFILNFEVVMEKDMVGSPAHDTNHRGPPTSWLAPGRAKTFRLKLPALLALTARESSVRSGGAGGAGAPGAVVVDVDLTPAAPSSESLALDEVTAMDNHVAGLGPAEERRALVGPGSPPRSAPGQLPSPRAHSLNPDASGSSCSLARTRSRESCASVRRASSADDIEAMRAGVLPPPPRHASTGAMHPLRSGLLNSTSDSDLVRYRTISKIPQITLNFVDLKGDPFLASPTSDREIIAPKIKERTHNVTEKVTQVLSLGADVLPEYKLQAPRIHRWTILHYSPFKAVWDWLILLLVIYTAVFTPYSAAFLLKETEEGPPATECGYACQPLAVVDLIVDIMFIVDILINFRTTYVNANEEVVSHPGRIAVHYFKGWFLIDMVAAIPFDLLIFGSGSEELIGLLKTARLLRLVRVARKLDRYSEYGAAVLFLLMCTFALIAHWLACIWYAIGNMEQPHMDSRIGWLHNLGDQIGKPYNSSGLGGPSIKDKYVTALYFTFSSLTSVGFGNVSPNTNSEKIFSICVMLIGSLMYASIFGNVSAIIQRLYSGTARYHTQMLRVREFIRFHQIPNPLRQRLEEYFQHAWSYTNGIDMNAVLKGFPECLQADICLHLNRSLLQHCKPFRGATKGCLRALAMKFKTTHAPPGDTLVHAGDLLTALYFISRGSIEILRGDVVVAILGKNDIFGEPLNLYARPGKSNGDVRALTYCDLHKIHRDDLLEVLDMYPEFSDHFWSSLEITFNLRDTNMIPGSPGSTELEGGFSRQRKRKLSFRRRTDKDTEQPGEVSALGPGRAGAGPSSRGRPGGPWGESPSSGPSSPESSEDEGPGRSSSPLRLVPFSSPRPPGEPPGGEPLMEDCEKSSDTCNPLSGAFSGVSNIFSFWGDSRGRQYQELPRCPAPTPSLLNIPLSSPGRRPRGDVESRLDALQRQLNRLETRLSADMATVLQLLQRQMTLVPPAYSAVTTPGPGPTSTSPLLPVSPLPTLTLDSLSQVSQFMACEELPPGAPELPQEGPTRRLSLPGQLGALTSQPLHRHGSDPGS

Which results are given for CC1=C(C(=O)OC(c2ccccc2)C2CC2)C(c2cccc3ccccc23)n2nnnc2N1 (stereo not drawn) [PT-002, cyclopropyl(phenyl)methyl 5-methyl-7-(naphthalen-1-yl)-4,7-dihydrotetrazolo[1,5-a]pyrimidine-6-carboxylate]?
hERG Patch Clamp hERG % blk (hERG potassium channel; 1 μM): 11.5%; hERG Patch Clamp hERG % blk (hERG potassium channel; 10 μM): 28.0%; inhibition at 10 µM [1, 3]: 2.4%; inhibition at 10 µM [2]: 53.1%

CC1=C(C(=O)OCc2ccccc2)C(c2ccccc2N2CCN(C)CC2)n2nnnc2N1 (stereo not drawn) [PT-340, benzyl 5-methyl-7-(2-(4-methylpiperazin-1-yl)phenyl)-4,7-dihydrotetrazolo[1,5-a]pyrimidine-6-carboxylate] was tested. Which “hERG Patch Clamp hERG % blk” value (hERG potassium channel; 1 μM) did it give?
The value was 57.0%.

And the “hERG Patch Clamp hERG % blk” value (hERG potassium channel; 10 μM)?
Its value is 93.5%.

What about the inhibition at 10 µM [1, 3] of the same molecule?
The inhibition at 10 µM was 89.1%.

What about the inhibition at 10 µM [2] of the same molecule?
Its inhibition at 10 µM is 71.9%.

Which “hERG Patch Clamp hERG % blk” value (hERG potassium channel; 1 μM) does the source give for CC1=C(C(=O)OCc2ccccc2)C(c2ccc(N(C)C)c3ccccc23)n2nnnc2N1 (stereo not drawn) [PT-032, benzyl 7-(4-(dimethylamino)naphthalen-1-yl)-5-methyl-4,7-dihydrotetrazolo[1,5-a]pyrimidine-6-carboxylate] here?
Its value is 19.0%.

What about the “hERG Patch Clamp hERG % blk” value (hERG potassium channel; 10 μM) of the same molecule?
The value was 50.5%.

And the inhibition at 10 µM [1, 3]?
Its inhibition at 10 µM is 11.5%.

And the inhibition at 10 µM [2]?
The inhibition at 10 µM was 63.6%.

How did the “hERG Patch Clamp hERG % blk” value (hERG potassium channel; 1 μM) turn out when N#CC1=C(N)OC2=C(C(=O)CCC2)C1c1ccsc1 (stereo not drawn) [PT-100, 2-amino-5-oxo-4-(thiophen-3-yl)-5,6,7,8-tetrahydro-4H-chromene-3-carbonitrile] was run?
The value was 10.0%.

What about the “hERG Patch Clamp hERG % blk” value (hERG potassium channel; 10 μM) of the same molecule?
Its value is 16.5%.

And the inhibition at 10 µM [1, 3]?
The inhibition at 10 µM was 4%.

And the inhibition at 10 µM [2]?
Its inhibition at 10 µM is -12.1%.

CC1=C(C(=O)OCc2ccccc2)C(c2c(-c3ccc(C(=O)O)cc3)sc3ccccc23)n2nnnc2N1 (stereo not drawn) [PT-294, 4-(3-(6-(benzyloxycarbonyl)-5-methyl-4,7-dihydrotetrazolo[1,5-a]pyrimidin-7-yl)benzo[b]thiophen-2-yl)benzoic acid] was tested. Which “hERG Patch Clamp hERG % blk” value (hERG potassium channel; 1 μM) did it give?
The value was 12.5%.

What about the “hERG Patch Clamp hERG % blk” value (hERG potassium channel; 10 μM) of the same molecule?
The value was 15.5%.

What about the inhibition at 10 µM [1, 3] of the same molecule?
The inhibition at 10 µM was 24.4%.

And the inhibition at 10 µM [2]?
Its inhibition at 10 µM is 67.2%.

For CCOC(=O)C1=C(C)NC(C)=C(C(=O)OCC)C1c1ccccc1Br [PT-430, diethyl 4-(2-bromophenyl)-2,6-dimethyl-1,4-dihydropyridine-3,5-dicarboxylate], which “hERG Patch Clamp hERG % blk” value (hERG potassium channel; 1 μM) is on record?
Its value is 10.0%.

What about the “hERG Patch Clamp hERG % blk” value (hERG potassium channel; 10 μM) of the same molecule?
Its value is 21.5%.

And the inhibition at 10 µM [1, 3]?
Its inhibition at 10 µM is 91%.

What about the inhibition at 10 µM [1, 4] of the same molecule?
Its inhibition at 10 µM is 55.6%.

What about the inhibition at 10 µM [2] of the same molecule?
Its inhibition at 10 µM is 95.3%.

Which “hERG Patch Clamp hERG % blk” value (hERG potassium channel; 1 μM) does the source give for CCOC(=O)C1=C(C)Nc2nc(C#N)c(C#N)n2C1c1cccc2ccccc12 (stereo not drawn) [PT-194, ethyl 2,3-dicyano-7-methyl-5-(naphthalen-1-yl)-5,8-dihydroimidazo[1,2-a]pyrimidine-6-carboxylate] here?
Its value is 25.0%.

And the “hERG Patch Clamp hERG % blk” value (hERG potassium channel; 10 μM)?
Its value is 91.0%.

What about the inhibition at 10 µM [1, 3] of the same molecule?
The inhibition at 10 µM was 19.1%.

What about the inhibition at 10 µM [2] of the same molecule?
The inhibition at 10 µM was 76.1%.

How did the “hERG Patch Clamp hERG % blk” value (hERG potassium channel; 1 μM) turn out when CCOC(=O)C1=C(C)NC2=C(C(=O)CCC2)C1c1ccco1 (stereo not drawn) [PT-153, ethyl 4-(furan-2-yl)-2-methyl-5-oxo-1,4,5,6,7,8-hexahydroquinoline-3-carboxylate] was run?
Its value is 10.5%.

And the “hERG Patch Clamp hERG % blk” value (hERG potassium channel; 10 μM)?
The value was 13.5%.

What about the inhibition at 10 µM [1, 3] of the same molecule?
The inhibition at 10 µM was 1.7%.

What about the inhibition at 10 µM [2] of the same molecule?
Its inhibition at 10 µM is -5%.

With CC1=C(C(=O)OC(C)C)C(c2ccc3ccccc3c2)C2=C(CCCC2=O)N1 (stereo not drawn) [PT-157, isopropyl 2-methyl-4-(naphthalen-2-yl)-5-oxo-1,4,5,6,7,8-hexahydroquinoline-3-carboxylate] as the molecule, how does the “hERG Patch Clamp hERG % blk” value (hERG potassium channel; 1 μM) read?
The value was 16.0%.

And the “hERG Patch Clamp hERG % blk” value (hERG potassium channel; 10 μM)?
The value was 37.1%.

And the inhibition at 10 µM [1, 3]?
The inhibition at 10 µM was 15.3%.

What about the inhibition at 10 µM [2] of the same molecule?
Its inhibition at 10 µM is 62.3%.

With COc1cc(Cl)ccc1COC(=O)C1=C(C)Nc2nnnn2C1c1c(C)cccc1C (stereo not drawn) [PT-307, 4-chloro-2-methoxybenzyl 7-(2,6-dimethylphenyl)-5-methyl-4,7-dihydrotetrazolo[1,5-a]pyrimidine-6-carboxylate] as the molecule, how does the “hERG Patch Clamp hERG % blk” value (hERG potassium channel; 1 μM) read?
The value was 10.0%.

And the “hERG Patch Clamp hERG % blk” value (hERG potassium channel; 10 μM)?
The value was 62.5%.

And the inhibition at 10 µM [1, 3]?
Its inhibition at 10 µM is 14%.

What about the inhibition at 10 µM [1, 4] of the same molecule?
The inhibition at 10 µM was 16.6%.

And the inhibition at 10 µM [2]?
The inhibition at 10 µM was 84.9%.

For CC1=C(C(=O)OC(C)Cc2ccccc2)C(c2cccc3ccccc23)n2nnnc2N1 (stereo not drawn) [PT-064, 1-phenylpropan-2-yl 5-methyl-7-(naphthalen-1-yl)-4,7-dihydrotetrazolo[1,5-a]pyrimidine-6-carboxylate], which “hERG Patch Clamp hERG % blk” value (hERG potassium channel; 1 μM) is on record?
The value was 20.5%.

And the “hERG Patch Clamp hERG % blk” value (hERG potassium channel; 10 μM)?
Its value is 37.5%.

And the inhibition at 10 µM [1, 3]?
The inhibition at 10 µM was 7.2%.

What about the inhibition at 10 µM [2] of the same molecule?
Its inhibition at 10 µM is 79.5%.

Which results are given for N#CC1=C(N)OC2=C(C(=O)CCC2)C1c1ccc(Br)cc1 (stereo not drawn) [PT-096, 2-amino-4-(4-bromophenyl)-5-oxo-5,6,7,8-tetrahydro-4H-chromene-3-carbonitrile]?
hERG Patch Clamp hERG % blk (hERG potassium channel; 1 μM): 15.0%; hERG Patch Clamp hERG % blk (hERG potassium channel; 10 μM): 48.0%; inhibition at 10 µM [1, 3]: -0.4%; inhibition at 10 µM [2]: 5.5%

With CCOC(=O)C1=C(C)NC(C)=C(C(=O)OCC)C1c1ccc2ccccc2c1 [PT-107, diethyl 2,6-dimethyl-4-(naphthalen-2-yl)-1,4-dihydropyridine-3,5-dicarboxylate] as the molecule, how does the “hERG Patch Clamp hERG % blk” value (hERG potassium channel; 1 μM) read?
The value was 11.5%.

And the “hERG Patch Clamp hERG % blk” value (hERG potassium channel; 10 μM)?
Its value is 48.0%.

And the inhibition at 10 µM [1, 3]?
Its inhibition at 10 µM is 25.9%.

And the inhibition at 10 µM [2]?
Its inhibition at 10 µM is 91.9%.

For CC1=C(C(=O)OC2CCc3ccccc32)C(c2cccc3ccccc23)n2nnnc2N1 (stereo not drawn) [PT-062, 2,3-dihydro-1H-inden-1-yl 5-methyl-7-(naphthalen-1-yl)-4,7-dihydrotetrazolo[1,5-a]pyrimidine-6-carboxylate], which “hERG Patch Clamp hERG % blk” value (hERG potassium channel; 1 μM) is on record?
Its value is 14.0%.

And the “hERG Patch Clamp hERG % blk” value (hERG potassium channel; 10 μM)?
The value was 51.0%.

And the inhibition at 10 µM [1, 3]?
Its inhibition at 10 µM is 7.9%.

What about the inhibition at 10 µM [2] of the same molecule?
Its inhibition at 10 µM is 60.2%.

Which “hERG Patch Clamp hERG % blk” value (hERG potassium channel; 1 μM) does the source give for N#CC1=C(N)OC2=C(C(=O)CC(c3ccccc3)C2)C1c1cccs1 (stereo not drawn) [PT-101, 2-amino-5-oxo-7-phenyl-4-(thiophen-2-yl)-5,6,7,8-tetrahydro-4H-chromene-3-carbonitrile] here?
The value was 19.0%.

And the “hERG Patch Clamp hERG % blk” value (hERG potassium channel; 10 μM)?
Its value is 67.5%.

What about the inhibition at 10 µM [1, 3] of the same molecule?
The inhibition at 10 µM was 2.9%.

And the inhibition at 10 µM [2]?
Its inhibition at 10 µM is 49.3%.

Which “hERG Patch Clamp hERG % blk” value (hERG potassium channel; 1 μM) does the source give for CC1=C(C(=O)OCc2ccccc2)C(c2cccc3ccccc23)n2nnnc2N1C (stereo not drawn) [PT-195, benzyl 4,5-dimethyl-7-(naphthalen-1-yl)-4,7-dihydrotetrazolo[1,5-a]pyrimidine-6-carboxylate] here?
The value was 12.5%.

What about the “hERG Patch Clamp hERG % blk” value (hERG potassium channel; 10 μM) of the same molecule?
Its value is 49.0%.

What about the inhibition at 10 µM [1, 3] of the same molecule?
Its inhibition at 10 µM is 1.7%.

What about the inhibition at 10 µM [2] of the same molecule?
The inhibition at 10 µM was 52.7%.
